Each molecule was assayed against T1, FLT3 Autoinh. (Homo sapiens, UniProt P36888) (assay: DiscoverX KINOMEscan active site-directed competition binding, FLT3 Autoinh.). Details: Table 13; no ATP.
T1 sequence (P36888 27-993): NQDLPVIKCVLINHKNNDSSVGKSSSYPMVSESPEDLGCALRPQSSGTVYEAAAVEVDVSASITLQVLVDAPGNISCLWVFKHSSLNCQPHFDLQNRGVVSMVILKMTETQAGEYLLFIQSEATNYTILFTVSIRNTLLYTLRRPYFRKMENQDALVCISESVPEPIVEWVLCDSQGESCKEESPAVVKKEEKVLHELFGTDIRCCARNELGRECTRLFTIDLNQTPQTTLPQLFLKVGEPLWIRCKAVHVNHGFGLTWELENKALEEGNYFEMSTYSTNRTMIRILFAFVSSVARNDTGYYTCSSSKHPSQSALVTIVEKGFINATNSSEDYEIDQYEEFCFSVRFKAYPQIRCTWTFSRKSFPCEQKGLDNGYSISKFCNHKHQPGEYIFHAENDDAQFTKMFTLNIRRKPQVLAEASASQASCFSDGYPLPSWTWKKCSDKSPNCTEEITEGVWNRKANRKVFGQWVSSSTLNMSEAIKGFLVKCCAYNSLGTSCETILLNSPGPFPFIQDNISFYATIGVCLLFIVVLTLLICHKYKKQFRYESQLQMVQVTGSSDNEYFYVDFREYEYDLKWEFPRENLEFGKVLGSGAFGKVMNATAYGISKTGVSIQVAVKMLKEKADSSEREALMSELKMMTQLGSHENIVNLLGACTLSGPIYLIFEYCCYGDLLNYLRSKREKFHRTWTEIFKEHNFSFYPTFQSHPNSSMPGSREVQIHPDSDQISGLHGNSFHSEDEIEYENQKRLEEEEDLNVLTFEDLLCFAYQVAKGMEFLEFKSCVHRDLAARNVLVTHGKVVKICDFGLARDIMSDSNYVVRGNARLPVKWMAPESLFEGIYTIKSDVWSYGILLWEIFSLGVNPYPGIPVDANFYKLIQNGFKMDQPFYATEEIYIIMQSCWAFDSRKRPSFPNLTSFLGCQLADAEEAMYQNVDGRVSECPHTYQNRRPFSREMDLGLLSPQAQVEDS
From the text: (§1) Kinase binding data were obtained for various exemplary compounds prepared according to Examples 1-8 using the DiscoverX KINOMEscan® active site-directed competition binding site-directed assay protocol described below. […] As a result, the data report thermodynamic interaction affinities (Kd values), rather than IC50 values that are dependent on ATP concentrations. The assay uses a DNA-tagged version of the protein kinase, and an immobilized ligand bound to a solid support. Compounds that directly or indirectly prevent kinase binding to the immobilized ligand reduce the amount of kinase captured on the solid support, which is detected using an ultra-sensitive qPCR method. Affinity constants reported from the assay have been reported to be independent of the immobilized ligand used that is coupled to the solid support (See supplemental information in Fabian, M. A. et. al., (2005) Nat. Biotechnol. 23, 329-336; Wodicka, L. M. et. al., (2010) Chem. Biol. 17, 1241-1249.)
Kinase-tagged T7 phage strains were prepared in an E. coli host derived from the BL21 strain. E. coli were grown to log-phase and infected with T7 phage and incubated with shaking at 32 °C until lysis. The lysates were centrifuged and filtered to remove cell debris. The remaining kinases were produced in HEK-293 cells and subsequently tagged with DNA for qPCR detection. Streptavidin-coated magnetic beads were treated with biotinylated small molecule ligands for 30 minutes at room temperature to generate affinity resins for kinase assays. The liganded beads were blocked with excess biotin and washed with blocking buffer (SeaBlock (Pierce), 1% BSA, 0.05% Tween 20, 1 mM DTT) to remove unbound ligand and to reduce non-specific binding. […] Test compounds were prepared as 111x stocks in 100% DMSO. Kds were determined using an 11-point 3-fold compound dilution series with three DMSO control points. All compounds for Kd measurements are distributed by acoustic transfer (non-contact dispensing) in 100% DMSO. The compounds were then diluted directly into the assays such that the final concentration of DMSO was 0.9%. All reactions were performed in polypropylene 384-well plates. Each was a final volume of 0.02 mL. The assay plates were incubated at room temperature with shaking for 1 hour and the affinity beads were washed with wash buffer (1×PBS, 0.05% Tween 20). The beads were then re-suspended in elution buffer (1×PBS, 0.05% Tween 20, 0.5 μM nonbiotinylated affinity ligand) and incubated at room temperature with shaking for 30 minutes. The kinase concentration in the eluates was measured by qPCR. Binding constants (Kds) were calculated with a standard dose-response curve using the Hill equation. The Hill Slope was set to −1. Curves were fitted using a non-linear least square fit with the Levenberg-Marquardt algorithm.
as §1, with “9-12” for “1-8”
Kinase-tagged T7 phage strains were prepared in an E. coli host derived from the BL21 strain. […]

Row | Kd [nM] | Compound
1 | 0.68 | COc1cn2ncc(-c3nc(N[C@H]4CNCC[C@@H]4F)c(C#N)cc3F)c2nc1C1CC1 [Compound 7, 6-(5-cyclopropyl-6-methoxypyrazolo[1,5-a]pyrimidin-3-yl)-5-fluoro-2-(((3S,4S)-4-fluoropiperidin-3-yl)amino)nicotinonitrile]
2 | 3.7 | COc1cn2ncc(-c3nc(N[C@H]4CNCC[C@@H]4F)c(F)cc3F)c2nc1C(C)(C)O [Compound 13, 2-(3-(3,5-difluoro-6-(((3S,4S)-4-fluoropiperidin-3-yl)amino)pyridin-2-yl)-6-methoxypyrazolo[1,5-a]pyrimidin-5-yl)propan-2-ol]
3 | 5.4 | COc1cn2ncc(-c3nc(N[C@H]4CNCC[C@@H]4F)c(C#N)cc3F)c2nc1C(C)(C)O [Compound 10, 5-fluoro-2-(((3S,4S)-4-fluoropiperidin-3-yl)amino)-6-(5-(2-hydroxypropan-2-yl)-6-methoxypyrazolo[1,5-a]pyrimidin-3-yl)nicotinonitrile]

Same assay, conditions: Table 19; no ATP

Row | Compound | Kd [nM]
4 | COc1cn2ncc(-c3cncc(N[C@H]4CNCC[C@@H]4F)n3)c2nc1C1CC1 [Compound 12a, 6-(5-cyclopropyl-6-methoxypyrazolo[1,5-a]pyrimidin-3-yl)-N-((3S,4S)-4-fluoropiperidin-3-yl)pyrazin-2-amine] | 4.6
5 | COc1cn2ncc(-c3nc(N[C@H]4CNCC[C@@H]4F)ncc3F)c2nc1C(C)(C)O [Compound 6a, 2-(3-(5-fluoro-2-(((3S,4S)-4-fluoropiperidin-3-yl)amino)pyrimidin-4-yl)-6-methoxypyrazolo[1,5-a]pyrimidin-5-yl)propan-2-ol] | 4.8

The next lines start with the values.

Row | Kd [nM] | Compound
6 | 12 | COc1cn2ncc(-c3ccnc(N[C@H]4CNCC[C@@H]4F)n3)c2nc1C1CC1 [Compound 7a, 4-(5-cyclopropyl-6-methoxypyrazolo[1,5-a]pyrimidin-3-yl)-N-((3S,4S)-4-fluoropiperidin-3-yl)pyrimidin-2-amine]
7 | 1.4 | COc1cn2ncc(-c3nc(N[C@H]4CNCC[C@@H]4F)ncc3F)c2nc1C1CC1 [Compound 15a, 4-(5-cyclopropyl-6-methoxypyrazolo[1,5-a]pyrimidin-3-yl)-5-fluoro-N-((3S,4S)-4-fluoropiperidin-3-yl)pyrimidin-2-amine]
8 | 1.6 | COc1cn2ncc(-c3nc(N[C@@H]4CCCNC4)ncc3F)c2nc1C1CC1 [Compound 14a, (R)-4-(5-cyclopropyl-6-methoxypyrazolo[1,5-a]pyrimidin-3-yl)-5-fluoro-N-(piperidin-3-yl)pyrimidin-2-amine]

Reference: patent US20260374773A1, “MULTI-CYCLIC IRAK AND FLT3 INHIBITING COMPOUNDS AND USES THEREOF” (CHILDREN'S HOSPITAL MEDICAL CENTER, priority 2022, published 2026)
